Results: patent publication US10570099B2, “Salts of an epidermal growth factor receptor kinase inhibitor” (Celgene CAR LLC, priority 2012, dated 2020)

Columns and labels:
[1] = Dog PK Study 2 (gastric pH adjustment, food effect); assay type: in vivo, beagle dogs; conditions: 30 mg/kg, plasma compound 1, dogs (n = 3), capsule orally 30 mg/kg, fasted, mean (% CV)
Procedure: Compound 1 free base and compound 2, as the Form I monohydrobromide (HBr) salt, were evaluated in a cross-over dog PK study in which male dogs were pre-treated with either pentagastrin (to decrease gastric pH) or famotidine (to increase gastric pH) prior to oral dosing to control gastric pH. In addition, the effect of food on the systemic exposure to compound 1 was also evaluated in dogs receiving Form I HBr with pentagastrin pre-treatment. Compound 1 free base capsule consisted of compound 1 free base in Vitamin E TPGS and PEG 400 filled into a capsule. The Form I hydrobromide salt capsule consisted of Form I HBr alone filled into a capsule.
There was a minimum 6-day washout between dosing. On the day of dosing under fed condition, dogs were given 60 gram of a high fat diet (Harlan Teklad 2027C) and allowed to consume all of the food within 15-20 minutes. The animals were given a 10-minute rest period and then the capsule doses were administered. Plasma samples were collected at pre-dose and 0.5, 1, 2, 4, 6, 8, 12 and 24 hours post dose.

[2] = Dog PK Study 1 (cross-over, fasted); assay type: in vivo, beagle dogs; conditions: male, beagle, po, plasma compound 1, fasted dogs, capsule orally 28.5 mg/kg, dog #3 excluded
Procedure: Compound 1 free base and compound 2, as the Form I monohydrobromide (HBr) salt, were evaluated in a cross-over dog PK study. Compound 1 free base capsule consisted of compound 1 free base in Vitamin E TPGS and PEG 400 filled into a capsule. The Form I hydrobromide salt capsule consisted of Form I HBr alone filled into a capsule.
Compound 1 free base capsule and Form I HBr capsule were dosed orally at 28.5 and 24.5 mg/kg (as active) QD, respectively, to three fasted male non-naïve beagle dogs (body weight range: 10.1-10.8 kg) with a 5-day washout period. Approximately 5 mL of tap water was orally administered to encourage swallowing and ensure delivery of capsules into the stomach. Plasma samples were collected at pre-dose and 0.5, 1, 2, 4, 6, 8, 12 and 24 hours post dose. The plasma concentrations of compound 1 were determined by a liquid chromatography-tandem mass spectrometry (LC/MS/MS) method.

[3] = Dynamic vapour sorption (DVS); assay type: physicochemical
Procedure: For dynamic vapour sorption (DVS), approximately 10-20 mg of sample was placed into a wire mesh vapour sorption balance pan and loaded into a DVS-1 dynamic vapour sorption balance by Surface Measurement Systems. The sample was subjected to a ramping profile from 20-90% relative humidity (RH) at 10% increments, maintaining the sample at each step until a stable weight had been achieved (99.5% step completion). After completion of the sorption cycle, the sample was dried using the same procedure, but all the way down to 0% RH and finally taken back to the starting point of 20% RH. The weight change during the sorption/desorption cycles were plotted, allowing for the hygroscopic nature of the sample to be determined.

[4] = 1 week stability study (XRPD and HPLC); assay type: physicochemical
Procedure: (§1) Resulting solids were analysed by XRPD and HPLC to establish if any changes had occurred.
as §1
The resulting solids were analysed by XRPD and HPLC to establish if any changes had occurred.

[5] = Thermodynamic solubility in media of various pH (HPLC; XRPD of excess solids); conditions: for Thermodynamic Solubility: ca. 24 hours
Procedure: The remaining solids were also analysed by XRPD analysis to establish if any changes in the solid form occurred.
The remaining solids were also analysed by XRPD analysis to establish if any changes in the solid form occurred. For the buffer solutions, KCl/HCl was used for pH 1 and citrate/phosphate combinations for pH 3, 4.5 and 6.6.
The remaining solids were also analysed by XRPD analysis to establish if any changes in the solid form occurred. For the buffer solutions, KCl/HCl was used for pH 1 and citric acid/sodium citrate combinations for pH 3, 4.5 and 6.2.
The solids were then removed by filtration and tested by XRPD analysis. The mother liquors were analyzed by HPLC to determine API solubility.
For the buffer solutions, KCl/HCl was used for pH 1 and citrate/phosphate combinations for pH 3, 4.5 and 6.6 (10 mM). The pH of the solutions was also measured prior to HPLC analysis.

[6] = 1 week stability of primary screen salts at 40° C./75% RH and 80° C. (open vials, XRPD); assay type: physicochemical
Procedure: (open vials). TGA was carried out after the stability studies for samples containing sufficient material.

[7] = Solvent solubility screen of amorphous hydrobromide salt; assay type: physicochemical
Procedure: Approximately 10 mg of amorphous hydrobromide salt was placed in each of 24 vials and 5 volume aliquots of the appropriate solvent system was added to the vial. Between each addition, the mixture was checked for dissolution. This procedure was continued until dissolution was observed or until 100 volumes of solvent had been added.

[8] = 25° C., closed container, 7 day
[9] = 80° C., closed container, 7 day

Q: What does the source list for C=CC(=O)Nc1cccc(Nc2nc(Nc3ccc(N4CCN(C(C)=O)CC4)cc3OC)ncc2C(F)(F)F)c1 [Compound 1 (Free Base)]?
A: AUC(0-t) ([1]; male, beagle, dog, plasma, po, Pentagastrin, read-out: AUC0-24): 7.81 µg·h/mL; Cmax ([1]; male, beagle, dog, plasma, po, Pentagastrin, read-out: Cmax): 1.82 µg/mL; AUC0-24 ([1]; Famotidine): 163 (3%) ng · h/mL; Cmax ([1]; Famotidine): 57 (24%) ng/mL; Cmax ([2]; mean): 0.12 µg/mL; half-life ([2]; mean): 2.1 h; AUC(0-t) ([2]; mean, read-out: AUC0-24): 0.278 µg·h/mL; Tmax ([2]; median): 1 h

Q: Which results are given for Br.C=CC(=O)Nc1cccc(Nc2nc(Nc3ccc(N4CCN(C(C)=O)CC4)cc3OC)ncc2C(F)(F)F)c1 [Form III hydrobromide salt]?
A: hygroscopicity (DVS) [3]: slightly hygroscopic; Moisture uptake, Cycle 3 Sorption ([3]; 0-20% RH): ca. 0.535%; mass uptake, Cycle 1 Sorption ([3]; 20-90% RH): ca. 1.045%; mass decrease, Cycle 2 Desorption ([3]; 90-0% RH): ca. 1.983%; post DVS XRPD analysis (polymorphic form) ([3]; after DVS cycles, listed as Form III): converted to Form I hydrobromide salt; HPLC purity after storage [4, 8]: 98.9%; XRPD after storage [4, 8]: Form I; HPLC purity after storage ([4]; 25° C., open container, 7 day): 98.2%; XRPD after storage ([4]; 25° C., open container, 7 day): Form I; HPLC purity after storage ([4]; 40° C./75% RH, closed (crimped) vial, 1 week): 99.0%; XRPD after storage ([4]; 40° C./75% RH, closed (crimped) vial, 1 week, listed as Form III): Form I; HPLC purity after storage ([4]; 40° C./75% RH, open vial, 1 week): 98.3%; XRPD after storage ([4]; 40° C./75% RH, open vial, 1 week, listed as Form III): Form I; HPLC purity after storage [4, 9]: 99.0%; XRPD after storage [4, 9]: Form I; HPLC purity after storage ([4]; 80° C., open vial, 1 week, listed as Form III): 98.7%; pH prior to analysis ([5]; Buffer pH 1): 0.95; pH prior to analysis ([5]; Buffer pH 3): 1.53; pH prior to analysis ([5]; Buffer pH 4.5): 1.79; pH prior to analysis ([5]; Buffer pH 6.6): 1.79; XRPD of excess solids ([5]; pH 1.0, KCl/HCl): remained predominantly consistent with the Form III hydrobromide; Thermodynamic Solubility ([5]; pH 1.0, KCl/HCl buffer, listed as Form III): 13.88 mg/mL; XRPD of excess solids ([5]; pH 3.0, Citrate/Phosphate): became amorphous; XRPD of excess solids ([5]; pH 4.5, Citrate/Phosphate): converted to a freebase hydrate form; Thermodynamic Solubility ([5]; pH 4.5, Citrate/Phosphate): 0.28 mg/mL; XRPD of excess solids ([5]; pH 6.6, Citrate/Phosphate): converted to a freebase hydrate form

Q: For C=CC(=O)Nc1cccc(Nc2nc(Nc3ccc(N4CCN(C(C)=O)CC4)cc3OC)ncc2C(F)(F)F)c1.O=S(=O)(O)c1ccc2ccccc2c1.O=S(=O)(O)c1ccc2ccccc2c1 [Naphthalene-2-sulfonic acid (2 eq.) Form III], which “Stability 40° C./75% RH (open conditions)” value (“Stability 40° C./75% RH” for short) [6] is on record?
A: Converted to Form II,

Q: And the “Stability 80° C. (open conditions)” value [6]?
A: Converted to Form II,

Q: With C=CC(=O)Nc1cccc(Nc2nc(Nc3ccc(N4CCN(C(C)=O)CC4)cc3OC)ncc2C(F)(F)F)c1.O=S(=O)(O)c1ccc2ccccc2c1.O=S(=O)(O)c1ccc2ccccc2c1 [Naphthalene-2-sulfonic acid (2 eq.) Form II] as the compound, how does the “Stability 40° C./75% RH” value [6] read?
A: No form change,

Q: For C=CC(=O)Nc1cccc(Nc2nc(Nc3ccc(N4CCN(C(C)=O)CC4)cc3OC)ncc2C(F)(F)F)c1.O=S(=O)(O)c1ccc2ccccc2c1.O=S(=O)(O)c1ccc2ccccc2c1 [Naphthalene-2-sulfonic acid (2 eq.) Form IV], which “Stability 40° C./75% RH” value [6] is on record?
A: Converted to Form II,

Q: And the “Stability 80° C. (open conditions)” value [6]?
A: Converted to Form II,

Q: What does the source list for C=CC(=O)Nc1cccc(Nc2nc(Nc3ccc(N4CCN(C(C)=O)CC4)cc3OC)ncc2C(F)(F)F)c1.O=S(=O)(O)c1ccc2ccccc2c1.O=S(=O)(O)c1ccc2ccccc2c1 [Naphthalene-2-sulfonic acid (2 eq.) Form I]?
A: Stability 40° C./75% RH (open conditions) [6]: No form change, poor; Stability 80° C. (open conditions) [6]: No form change, poor

Q: With C=CC(=O)Nc1cccc(Nc2nc(Nc3ccc(N4CCN(C(C)=O)CC4)cc3OC)ncc2C(F)(F)F)c1.O=C(O)C(=O)O [Oxalate Form II] as the compound, how does the “Stability 40° C./75% RH” value [6] read?
A: No form change,

Q: What about the “Stability 80° C. (open conditions)” value [6] of the same compound?
A: Amorphous brown

Q: Which “Stability 40° C./75% RH” value [6] does the source give for C=CC(=O)Nc1cccc(Nc2nc(Nc3ccc(N4CCN(C(C)=O)CC4)cc3OC)ncc2C(F)(F)F)c1.O=C(O)C(=O)O [Oxalate Form I] here?
A: No form change,

Q: And the “Stability 80° C. (open conditions)” value [6]?
A: No form change,

Q: With C=CC(=O)Nc1cccc(Nc2nc(Nc3ccc(N4CCN(C(C)=O)CC4)cc3OC)ncc2C(F)(F)F)c1.Cc1ccc(S(=O)(=O)O)cc1 [Tosylate (1 equiv.) Form II] as the compound, how does the “Stability 40° C./75% RH” value [6] read?
A: Gum formed

Q: What about the “Stability 80° C. (open conditions)” value [6] of the same compound?
A: Possible form change,

Q: Which results are given for C=CC(=O)Nc1cccc(Nc2nc(Nc3ccc(N4CCN(C(C)=O)CC4)cc3OC)ncc2C(F)(F)F)c1.Cc1ccc(S(=O)(=O)O)cc1 [Tosylate (1 equiv.) Form I]?
A: Stability 40° C./75% RH (open conditions) [6]: No form change,; Stability 80° C. (open conditions) [6]: No form change,

Q: Which “Stability 40° C./75% RH” value [6] does the source give for C=CC(=O)Nc1cccc(Nc2nc(Nc3ccc(N4CCN(C(C)=O)CC4)cc3OC)ncc2C(F)(F)F)c1.Cc1ccc(S(=O)(=O)O)cc1.Cc1ccc(S(=O)(=O)O)cc1 [Tosylate (2 equiv.) Form II] here?
A: Gum formed

Q: What about the “Stability 80° C. (open conditions)” value [6] of the same compound?
A: Possible form change,

Q: For C=CC(=O)Nc1cccc(Nc2nc(Nc3ccc(N4CCN(C(C)=O)CC4)cc3OC)ncc2C(F)(F)F)c1.Cc1ccc(S(=O)(=O)O)cc1.Cc1ccc(S(=O)(=O)O)cc1 [Tosylate (2 equiv.) Form I], which “Stability 40° C./75% RH” value [6] is on record?
A: No form change,

Q: What about the “Stability 80° C. (open conditions)” value [6] of the same compound?
A: No form change,

Q: With Br.C=CC(=O)Nc1cccc(Nc2nc(Nc3ccc(N4CCN(C(C)=O)CC4)cc3OC)ncc2C(F)(F)F)c1 [amorphous hydrobromide salt] as the compound, how does the “Approximate Solubility” value ([7]; 1,4-Dioxane) read?
A: <10 mg/mL

Q: And the “Approximate Solubility” value ([7]; 1-Butanol)?
A: <10 mg/mL

Q: And the “Approximate Solubility” value ([7]; 2-Propanol)?
A: <10 mg/mL

Q: What about the “Approximate Solubility” value ([7]; 3-Methyl-1-butanol) of the same compound?
A: <10 mg/mL

Q: And the “Approximate Solubility” value ([7]; Acetone)?
A: <10 mg/mL

Q: What about the “Approximate Solubility” value ([7]; Acetone:Water (10%)) of the same compound?
A: <10 mg/mL

Q: What about the “Approximate Solubility” value ([7]; Acetonitrile) of the same compound?
A: <10 mg/mL

Q: What about the “Approximate Solubility” value ([7]; Cyclohexane) of the same compound?
A: <10 mg/mL

Q: What about the “Approximate Solubility” value ([7]; Dichloromethane) of the same compound?
A: <10 mg/mL

Q: And the “Approximate Solubility” value ([7]; Diisopropyl ether)?
A: <10 mg/mL

Q: What about the “Approximate Solubility” value ([7]; Dimethylformamide) of the same compound?
A: ca. 67 mg/mL

Q: What about the “Approximate Solubility” value ([7]; Dimethylsulfoxide) of the same compound?
A: ca. 50 mg/mL

Q: What about the “Approximate Solubility” value ([7]; Ethanol) of the same compound?
A: <10 mg/mL

Q: What about the “Approximate Solubility” value ([7]; Ethyl acetate) of the same compound?
A: <10 mg/mL

Q: And the “Approximate Solubility” value ([7]; Heptane)?
A: <10 mg/mL

Q: And the “Approximate Solubility” value ([7]; Isopropyl acetate)?
A: <10 mg/mL

Q: What about the “Approximate Solubility” value ([7]; Methyl isobutyl ketone) of the same compound?
A: <10 mg/mL

Q: And the “Approximate Solubility” value ([7]; Methylethyl ketone)?
A: <10 mg/mL

Q: And the “Approximate Solubility” value ([7]; N-Methyl-2-pyrrolidone)?
A: ca. 20 mg/mL

Q: What about the “Approximate Solubility” value ([7]; Nitromethane) of the same compound?
A: <10 mg/mL

Q: What about the “Approximate Solubility” value ([7]; Tetrahydrofuran) of the same compound?
A: <10 mg/mL

Q: What about the “Approximate Solubility” value ([7]; Toluene) of the same compound?
A: <10 mg/mL

Q: And the “Approximate Solubility” value ([7]; Water)?
A: <10 mg/mL

Q: And the “Approximate Solubility” value ([7]; tert-Butylmethyl ether)?
A: <10 mg/mL
